Assay [1] relates to CT26.WT-hHER2 cells. In words: Analysis of in vitro cancer cells treated with different compounds, MHC class I (Evaluation Example 17). It counts as cell-based, mouse. The conditions noted are these: 20 nM, 100 nM, 500 nM; vs control group, Dunnett's test; agents: compound (A), DM1-SMe, DM4-SMe, MMAE. How it is done: (§1) To culture solution for CT26.WT-hHER2 cells, the compound (A) was added to a concentration of 0.0625 μM, 0.125 μM, 0.25 μM, 0.5 μM, or 1 μM. For a control, DMSO in a quantity equal to that of the compound (A) was added. After 24 hours, staining was performed by using PE labeled anti-human Her2/neu (340552, Becton Dickinson) and FITC labeled anti-mouse H-2Dd (110606, BioLegend), and expression levels of MHC class I on cancer cells were determined with flow cytometry. Dead cells had been stained with a LIVE/DEAD Fixable Near-IR Dead Cell Stain Kit purchased from Thermo Fisher Scientific, and excluded from the analysis. The mean fluorescence intensity (MFI) of MHC class I was calculated, and MFI for cells treated with an Isotype control was subtracted from the MFI for stained cells, and the resulting value was used as adjusted MFI. Comparison between the control group and the compound (A) group was performed by using Dunnett's test, P values were expressed as numerical values to the fourth decimal place, and values of P<0.05 (two-tailed test) were regarded as significant differences.
Expression levels of MHC class I were determined for cancer cells treated with different compounds. […]

Assay [2] has as its system bone marrow-derived dendritic cells. In words: Effect on in vitro dendritic cells, flow cytometry (Evaluation Example 5). In kind it is cell-based, mouse. The conditions noted are these: 0.0625-1 μM, 24 hours, compared with DMSO. Here is the method:
BALB/c mice were euthanized, and bone marrow cells were then separated from each femur, and cultured with an RPMI 1640 medium containing 10% FBS, 55 μM 2-mercaptoethanol, 100 U/mL penicillin, […], 1 mM sodium pyruvate, 1×non-essential amino acid, 2 mM L-glutamine, and 10 ng/mL mouse GM-CSF for 11 days to induce bone marrow-derived dendritic cells. To the culture solution for the induced dendritic cells, the compound (A) was added to a concentration of 0.0625 μM, 0.125 μM, 0.25 μM, 0.5 μM, or 1 μM. For a control, DMSO in a quantity equal to that of the compound (A) was added. After 24 hours, staining was performed by using a Pacific Blue labeled anti-mouse CD45 Antibody (103126, BioLegend), PE labeled anti-mouse CD86 (B7-2) (553692, Becton Dickinson), APC labeled anti-mouse CD11c (550261, Becton Dickinson), and FITC labeled anti-mouse MHC Class II (I-A/I-E) (11-5321-85, Thermo Fisher Scientific), and analysis was performed by using an FACS Canto II. Dead cells had been stained with a LIVE/DEAD Fixable Near-IR Dead Cell Stain Kit purchased from Thermo Fisher Scientific, and excluded from the analysis.
(A flow cytometer gives signals particle by particle.)

The test system of assay [3] is CT26.WT-hHER2 cells. The assay is described as follows: Analysis of in vitro cancer cells, MHC class I by flow cytometry (Evaluation Example 8). It counts as cell-based, mouse. The conditions noted are these: 0.0625-1 μM, 24 hours, vs DMSO, Dunnett's test. How it is done:
as §1

The target of another assay is T1, topoisomerase I (Homo sapiens, UniProt P11387).
T1 sequence (P11387 1-765): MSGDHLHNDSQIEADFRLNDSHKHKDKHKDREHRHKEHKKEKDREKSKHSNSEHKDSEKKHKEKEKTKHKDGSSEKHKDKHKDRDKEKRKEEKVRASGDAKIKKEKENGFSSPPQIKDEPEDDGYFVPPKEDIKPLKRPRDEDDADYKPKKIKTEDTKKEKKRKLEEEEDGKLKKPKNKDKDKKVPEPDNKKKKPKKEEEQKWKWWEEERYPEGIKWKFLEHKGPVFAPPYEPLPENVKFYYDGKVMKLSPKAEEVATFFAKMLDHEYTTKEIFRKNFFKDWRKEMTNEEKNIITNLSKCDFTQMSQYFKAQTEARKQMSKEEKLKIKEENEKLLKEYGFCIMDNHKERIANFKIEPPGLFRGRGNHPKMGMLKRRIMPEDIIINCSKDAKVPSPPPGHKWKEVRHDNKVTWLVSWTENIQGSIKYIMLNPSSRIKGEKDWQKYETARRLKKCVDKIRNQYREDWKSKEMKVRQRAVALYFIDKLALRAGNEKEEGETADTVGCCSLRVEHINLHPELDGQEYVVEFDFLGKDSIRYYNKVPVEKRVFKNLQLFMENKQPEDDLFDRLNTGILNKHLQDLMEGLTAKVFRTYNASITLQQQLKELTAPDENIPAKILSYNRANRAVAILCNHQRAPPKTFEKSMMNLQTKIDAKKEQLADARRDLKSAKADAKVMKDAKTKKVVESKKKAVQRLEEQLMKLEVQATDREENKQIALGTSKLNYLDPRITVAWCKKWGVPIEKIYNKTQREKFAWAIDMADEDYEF
The conditions noted are these: Ogitani Y. et al., Clinical Cancer Research 2016; cited from earlier work.

We go through one compound from patent publication US12319736B2, “Combination of antibody-drug conjugate and immune checkpoint inhibitor” (DAIICHI SANKYO COMPANY, LIMITED, priority 2016, dated 2025).

Turning to `CC[C@@]1(O)C(=O)OCc2c1cc1n(c2=O)Cc2c-1nc1cc(F)c(C)c3c1c2[C@@H](NC(=O)CO)CC3` [compound (A)], the “expression level of MHC class I on CT26.WT-hHER2 cells” value in the assay with CT26.WT-hHER2 cells [1] was “maximum elevation effect”. Also, in assay [2], the “expression level of CD86 on CD11c-positive cells” value was “elevated” and the “expression level of MHC class II on CD11c-positive cells” value is listed as “elevated”. Moreover, the “expression level of MHC class I on CT26.WT-hHER2 cells (adjusted MFI)” value with CT26.WT-hHER2 cells [3] was “significantly elevated”. The “topoisomerase I inhibitory effect” value at topoisomerase I is “confirmed to have a topoisomerase I inhibitory effect”.
